Data taken from patent publication US9393199B2, “Methods and compositions for localized agent delivery” (Massachusetts Institute of Technology, priority 2008, dated 2016).

Columns and labels:
[1] = systemically injected; cited from earlier work
[2] = Kinetics of protein release from lipid-coated PLGA particles in vitro (ELISA of supernatant); format: physicochemical; conditions: complete RPMI 10% FCS, 37° C., by the end of the incubation period (~1 week)
Procedure: FIGS. 5A-C. Protein and TLR ligand incorporation in lipid-coated PLGA nanoparticles. (A) Confocal image (left) and cryoEM image (right) of lipid-coated nanoparticles loaded with fluorescent ova in the particle cores. Note that the particles in the confocal image are artificially aggregated here by drying on a coverslip for imaging. (B) Kinetics of IL-15 release from lipid-coated PLGA particles in vitro in complete medium at 37° C. (C) Bone marrow-derived DCs were incubated with 3 mg/mL lipid-nanoparticles containing 1 mole % or 10 mole % MPLA in the lipid coating, equivalent amounts of soluble MPLA (30 μg/mL or 3 μg/mL), or soluble LPS (1 μg/mL) as a positive control. At 24 hrs, the maturation status of the cells was assessed by flow cytometry analysis of cell surface MHC II, CD80, and CD40 (not shown).
Ova however is a model globular protein and as such it was chosen to illustrate the behavior of other proteins such as interleukin-15 (IL-15) superagonist molecules which can be used to support ACT T cells. […] The kinetics of IL-15 release from the particles was determined by incubating the particles in complete RPMI medium containing 10% FCS at 37° C. with gentle agitation and taking aliquots of the supernatant at staggered timepoints for ELISA analysis of cytokine content. […]

[3] = tested on: lineage−Sca-1+c-kit+ progenitor cells; assay: Reconstitution by hematopoietic progenitor cell grafts in lethally irradiated recipients; format: in vivo; conditions: 1.6 ng TWS119 at the time of transplantation
Procedure: FIGS. 14A-D. Hematopoietic progenitor cells (referred to in the Figure as HSCs) carrying GSK-3β inhibitor-loaded nanoparticles reconstitute recipient animals with rapid kinetics following bone marrow transplants without affecting multilineage differentiation potential. (A, B) Engraftment kinetics of luciferase-transgenic HSC grafts in lethally-irradiated nontransgenic syngeneic recipients. Mice were treated with a single bolus injection of the GSK-3β inhibitor TWS119 (1.6 ng) on the day of transplantation, an equivalent TWS119 dose encapsulated in HSC-attached DNA-gel nanoparticles, or no exogenous agent. Transplanted mice were imaged for whole-body bioluminescence every 7 days for 3 weeks. Shown are representative IVIS images (A) and whole animal photon counts (B) for 9 mice total/treatment condition. (C) Percentage of donor-derived cells in recipient mice 2 weeks after transplantation of GFP^+ HSCs with or without TWS119. *P<0.001. (D) Average frequency of donor-derived GFP^+ B cells, T cells, and myeloid cells in recipient mice 3 months after transplantation. 5 mice/group were analyzed.
We further examined the utility of this delivery approach in the context of hematopoietic stem cell transplantations. We treated C57Bl/6 F-luc-transgenic mice or C57Bl/6 GFP-transgenic mice with 5-fluorouracil (5-FU, Sigma Aldrich) (150 mg/kg, i.p) and euthanized them 3 days later. […]

[4] = Release of cargo from lipid-coated DNA-gel nanoparticles (data not shown); format: physicochemical; conditions: lipid-coated DNA-gel particles ~200 nm
[5] = cited from earlier work
[6] = systemic, delivered orally, humans; cited from earlier work

IL-15: Interleukin-15, cytokine; encapsulated alone in lipid-coated PLGA particles in b217
half life [1]: ~1 h | encapsulated cytokine released [2]: ~80%

Nc1cccc(-c2cc3c(Oc4cccc(O)c4)ncnc3[nH]2)c1 [TWS119]
engraftment kinetics / proliferative reconstitution of progenitor cell grafts [3]: did not significantly alter | period of slow release from DNA-gel nanoparticles [4]: 7 days

CC(C)Cn1cnc2c(N)nc3ccccc3c21 [imiquimod]
half-life following injection [5]: ~2 h | toxicity [6]: dose-limiting toxicity
